For one assay, the system named is Dunaliella parva. Nature of the assay: Activity against Dunaliella parva (minimum inhibitory concentration, twofold serial dilution). As to conditions: 168 h, read-out: MIC (Minimum Inhibitory Concentration). In kind it is cell-based. Here is the method:
Tests were conducted to determine the toxicity of the marine antifouling agents of the present invention to Dunaliella. Dunaliella are indicative of soft fouling organisms.
The effectiveness of the marine antifouling agents of the present invention and 3-iodopropargyl N-butyl carbamate (Comparative) against Dunaliella parva were determined by a twofold serial dilution procedure which determined the Minimum Inhibitory Concentration ("MIC") of test compound required to inhibit the growth of an algal inoculum. […]
Cultures were grown in 50 mL of medium contained in 250 mL baffle flasks with silicone sponge closures (Bellco Glass, Vineland, N.J., #2004-00004, 28 mm), on a rotary shaker under constant cool white illumination. […] The culture was standardized to an absorbance of 0.1 at 490 nm by addition of fresh medium. […]
Solutions of test compound at 40x the highest concentration to be tested were prepared in an appropriate solvent. […] At the end of that time, the plates were examined for growth, as evidenced by easily visible green color, using a mirrored microplate reader.
Results were recorded as the median of the three replicate results and are reported below as the minimum concentration to inhibit growth (MIC).

A further assay has as its system Artemia. Nature of the assay: Toxicity to Artemia (LC100 of nauplii). As to conditions: 24 Hours, 25° C. In kind it is in vivo, Artemia satlina. How it is done: Tests were conducted to determine the toxicity of the marine antifouling agents of the present invention to Artemia. Artemia are indicative of hard fouling organisms.
Substitute ocean water was prepared following ASTM Method D 1141-90. The water was sterilized by filtration through a 0.22 micron cellulose acetate membrane filter. San Francisco Bay Brand® (San Francisco Bay Brand, Inc., Newark, Calif.) Artemia satlina cysts were purchased from a local aquarium supply store. The cysts were hatched in a 250 mL Erlenmeyer flask. The Artemia cysts (0.2 g) were weighed into a sterilized flask. One hundred mL of sterile ASTM sea water was added to the flask. The flask was placed on an orbital shaker set at approximately 150 rotations per minute and 28° C. After 24 hours, the contents of the flask were poured into a separatory funnel. The egg shells were separated from the Artemia nauplii (larvae), as the shells floated to the top. The nauplii were returned to the flask for another 24 hours shaking. The inoculum was prepared by pouring the nauplii into a crystallizing dish 48 hours after the cysts were originally placed on the shaker. […] The number of nauplii in 3 to 4 wells was counted under a microscope. […]
Plates were read under a low magnification microscope 24 and 48 hours after the nauplii were added to the plate. […]

Each structure is given as a SMILES string. In brackets after ≈: the same amount, converted by molar mass. Where two headings read alike, the source gives them in different places.

For the compound `O=C(C(=O)c1ccccc1)c1ccccc1` [R=R^1 =H], the MIC in the assay on Dunaliella parva turned out to be 0.6 µg/mL (≈ 2.85 µM). The “Artemia LC100 (highest dilution in which all of the nauplii are dead)” value with Artemia is 12.5 ppm.
Consider `CCCCNC(=O)OCC#CI` [Comparative, 3-iodopropargyl N-butyl carbamate], for which the MIC with Dunaliella parva (23° C., one week incubation, median of three replicates) was 6.2 µg/mL (≈ 22.1 µM). Further, the “Artemia LC100 (highest dilution in which all of the nauplii are dead)” value in the assay with Artemia was determined as 25 ppm.

For the origin of these results see patent US5853463A, “Marine antifouling agent” (Rohm and Haas Company, priority 1998, dated 1998).
